Experimental data from US12085564B2, “Assay to determine in vivo receptor occupancy” (BRISTOL-MYERS SQUIBB COMPANY, priority 2018, dated 2024).

Target: T1, Recombinant BTK (Homo sapiens, UniProt Q06187)
T1 construct: purchased Life Technologies (Carlsbad, CA) PV3587
Assay: Preparation of DB-BTK / QB-BTK reference standards: covalent reaction of recombinant BTK with excess drug or quencher
Type: biochemical
Details: recombinant BTK 5.9 μM, excess amount of drug, RT for 1 h
Procedure: Recombinant BTK (5.9 μM, 200 μL) was combined with 400 μL of PBS, and then spiked with 15 μL of 1.0 mg/mL drug solution (compound shown in FIG. 1A) in acetonitrile (2701 μM drug, 15 μL). The solution was then incubated at RT for 1 h, resulting in a DB-BTK concentration of 1919 nM.
Recombinant BTK (5.9 μM, 200 μL) was combined with 400 μL of PBS, and then spiked with 15 μL of 1.0 mg/mL quencher solution (compound shown in FIG. 1B) in acetonitrile (2806 μM quencher, 15 μL). The solution was incubated at RT for 1 h, resulting in a QB-BTK concentration of 1919 nM.

T1 sequence (Q06187 whole entry): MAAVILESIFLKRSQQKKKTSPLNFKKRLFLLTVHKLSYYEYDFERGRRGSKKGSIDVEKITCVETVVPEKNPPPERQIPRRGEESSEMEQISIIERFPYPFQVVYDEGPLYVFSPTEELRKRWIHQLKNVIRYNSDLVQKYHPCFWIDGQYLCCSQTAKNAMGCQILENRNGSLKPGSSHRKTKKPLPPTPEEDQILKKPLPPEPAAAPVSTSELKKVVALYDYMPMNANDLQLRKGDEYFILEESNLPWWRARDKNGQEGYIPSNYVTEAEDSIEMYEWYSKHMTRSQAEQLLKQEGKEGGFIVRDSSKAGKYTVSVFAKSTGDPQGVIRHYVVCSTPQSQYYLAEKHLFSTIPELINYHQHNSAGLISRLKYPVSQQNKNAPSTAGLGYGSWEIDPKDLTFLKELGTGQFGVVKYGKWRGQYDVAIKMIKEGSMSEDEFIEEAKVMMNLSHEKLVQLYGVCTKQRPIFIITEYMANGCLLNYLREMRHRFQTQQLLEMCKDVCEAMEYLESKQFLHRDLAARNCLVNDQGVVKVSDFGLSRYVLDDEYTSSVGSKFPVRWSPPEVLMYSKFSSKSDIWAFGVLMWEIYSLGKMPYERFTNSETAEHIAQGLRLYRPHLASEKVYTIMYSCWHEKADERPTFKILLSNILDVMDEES

Question: `CC#CC(=O)N[C@H]1CCCN(c2c(F)cc(C(N)=O)c3[nH]c(C)c(C)c23)C1` [compound shown in FIG. 1A] was tested. Which “conversion of free BTK to DB-BTK” value did it give?
Answer: The value was ~100%.
